test: method code SF-HPLC, from DOI: 10.1002/jps.2600750109, PMID: 3958903; details: pH 7.4

Row | SMILES | logD
1 | CCC(C(=O)OCCc1ccccc1)C(CO)Cc1cncn1C (stereo unspecified) | 2.31
2 | CC(C)(C)C(=O)OCOc1ccccc1C(=O)NCN1CCOCC1 | 1.81
3 | CCC(C(=O)OC(C)c1ccccc1)C(CO)Cc1cncn1C (stereo unspecified) | 2.23
4 | CC[C@H](C(=O)OCc1ccc(Cl)cc1)[C@H](CO)Cc1cncn1C | 2.69
5 | O=C(NCN1CCOCC1)c1ccccc1O | 1.27

Second part, the compound after the results:

Row | logD | SMILES
6 | 2.46 | CC[C@H](C(=O)OCc1ccc(C)cc1)[C@H](CO)Cc1cncn1C
7 | 0.73 | CCOC(=O)CC(CO)C(CC)c1cncn1C (stereo unspecified)
8 | 2.71 | CCCCCCOC(=O)C(CC)C(CO)Cc1cncn1C (stereo unspecified)
9 | 2.42 | CC[C@H](C(=O)OCc1ccccc1C)[C@H](CO)Cc1cncn1C
10 | 1.73 | CCCCOC(=O)[C@@H](CC)[C@H](CO)Cc1cncn1C
11 | 1.97 | CCC(C(=O)OCc1ccccc1)C(CO)Cc1cncn1C (stereo unspecified)

Reference: the SangsterLogP compilation
